Results on 5 molecules are retold here after patent US10266838B2, “Methods for enhancing root growth of plants” (Academia Sinica, priority 2013, dated 2019).

One data set concerns rice half seeds. As to the kind of experiment: rice half-seed transient expression assay, GUS activity. It counts as cell-based. Particulars: rice half seeds transfected by particle bombardment, with vs without 10 μM ABA for 16 h. The method, then: (§1) (A) Three copies of ABRC321 confer high ABA inducibility in a rice half-seed transient expression assay. Rice half seeds were transfected with plasmids shown in FIG. 1 by particle bombardment, and incubated with (+) or without (−) 10 μM ABA for 16 h, and GUS activity was analyzed. (B) Three copies of ABRC321 confer high ABA inducibility in leaves and roots in transgenic rice. Constructs shown in FIG. 1 were introduced into the rice genome. Leaves and roots of 10-day-old T2 seedlings of four transgenic lines were collected and incubated in water with (+) or without (−) 10 μM ABA for 16 h, and GUS activity was analyzed. Numbers above bars indicate fold induction of GUS activity by ABA. Error bars represent SD (n=3).
Two 56-bp complementary oligonucleotides, containing the CE3 and A2 elements from the HVA1 promoter and the CE1 element from the HVA22 promoter (Shen Q, Zhang P, & Ho T H (1996) Plant Cell 8(7):1107-1119) and restriction sites KpnI, XhoI and XbaI were synthesized, annealed, and designated as ABRC321 (FIG. 1A). ABRC321 was self-ligated in two or three copies in correct orientations. For expression of GUS under the control of ABRC321, 1-3 copies ABRC321 was inserted into the XbaI site in MP64, so that the ABRC321 was fused upstream of the barley Amy64 minimal promoter, generating constructs 1xABRC321-GUS, 2x-ABRC321-GUS and 3xABRC321-GUS (FIG. 1(B)). For expression of HVA1 under the control of 3xABRC321, GUS cDNA in construct 3xABRC321-GUS was replaced with HVA1 cDNA, generating construct 3xABRC321-HVA1 (FIG. 1(C)) (SEQ ID NO: 6).
In this study, we used a […] promoter, ABRC321, to express recombinant HVA1 (rHVA1) in plants. […] ABRC321 was generated by fusion of coupling element CE3 and ABRE2 (A2) from the HVA1 ABRC3 and coupling element CE1 from the HVA22 ABRC1 (Shen Q, Zhang P, & Ho T H (1996) Plant Cell 8(7):1107-1119). The reporter gene GUS was fused downstream of 1-3 tandem repeats of ABRC321 and the Amy64 minimal promoter.

The test system of the next data set is PIN genes. The experiment in a line: quantitative real-time RT-PCR of auxin transporter genes in roots. The format is in vivo, rice. To be noted: Yoshida solution with or without 0.2 μM ABA for 14 days, root RNA. As to the method: Four-day-old seedlings of Tainung 67 (T) transgenic lines were germinated on MS medium for four days and transfer to full strength Yoshida solution with or without 0.2 μM ABA for 14 days. Total RNA was extracted from roots and subjected to quantitative real-time RT-PCR.
To determine whether the promotion of root growth by HVA1 in transgenic rice involves the auxin (IAA)-dependent pathway, the expression of various genes involved in auxin transport and signaling were determined. […] The rice PIN family is encoded by 12 genes, with expression of each being spatially and temporally regulated (Wang J R, et al. (2009) Mol Plant 2(4):823-831).

Another data set deals with Tainung 67 seedlings. The experiment in a line: root growth of rice seedlings on half-strength MS medium containing ABA and/or NPA. It counts as in vivo, Oryza sativa L. cv Tainung 67. On the set-up: lateral root morphology: dose or concentration left out as unconfirmed. An excerpt: Three-day-old seedlings of Tainung 67 (T) transgenic lines were transferred to half-strength MS medium without sugar but containing ABA or sorbitol, and root morphology was examined. (A) Morphology of various branch roots.
Three-day-old seedlings of Tainung 67 (T) transgenic lines that containing seminal roots only were transferred to half-strength MS (½) medium without sugar but containing ABA and/or NPA for 11 days, and root morphology was examined. […] The dots indicate starting points of root growth after transferring to MS medium containing ABA and/or NPA.
Rice cultivars Oryza sativa L. cv Tainung 67 and Oryza sativa L. cv Kitaake were used for all experiments. Plasmid was introduced into Agrobacerium tumefaciens strain EHA101 and rice transformation was performed as described (Chen P-W, et al. (2002) J Biol Chem 277:13641-13649). Homozygous transgenic lines were used in all experiments. For observation of root growth, transgenic rice seeds were germinated on the surface of half-strength MS medium without sugar but with or without ABA. For hydroponic culture, Yoshida solution was used. Seedlings were normally grown in 28′C incubator with 12 hr daily light.
Rice branch roots could be classified into four types: seminal root, also called radical, the first root grows during germination; crown roots, roots emerge from the node of coleoptile; adventitious roots, roots differentiate from the nodes of main stem and tillers, lateral roots, roots branch from above three types of roots and can bear additional large or small lateral roots until the fifth order of branching. The number of each type of root was measured by simple counting. Root length was measured, number of roots was counted, and lateral root density was determined by dividing lateral root number with root length. Error bars represent SD (n=12). Significance levels: *P<0.05, **P<0.01, ***P<0.001.
In medium without any treatment, newly grown crown and lateral roots were more abundant in Tainung 67 transgenic lines than in WT (FIG. 12(A)). […] In the presence of NPA, growth of all types of roots was inhibited (FIG. 12(C)).

In data set [1] the test system is leaves and roots in transgenic rice. As to the kind of experiment: GUS activity in leaves and roots of stably transformed transgenic rice. It counts as in vivo. To be noted: 10-day-old T2 seedlings, 10 μM ABA for 16 h, compared among all constructs. The method, then:
as §1
All ABRC321:GUS constructs were also used for rice stable transformation.

Where [2] appears, read: 0.2 μM ABA plus 1 μM NPA, 11 days.

“1xABRC321: synthetic ABA-inducible promoter, one copy of ABRC321 (CE3, A2, CE1 elements) fused upstream of Amy64 minimal promoter and GUS (DNA GGTACCGCAACGCGTGTCCTCCCTACGTGGCGGCTCGAGATTGCCACCGGTCTAGA; synthetic promoter element in GUS reporter construct, further chemistry not given here)”: the “induction of GUS activity by ABA” value in the data set on rice half seeds amounted to 19 fold.
Consider `CC1=CC(=O)CC(C)(C)[C@@]1(O)/C=C/C(C)=C\C(=O)O` [ABA, abscisic acid], for which the “expression of several PIN genes” value in the data set with PIN genes was “up-regulated”. Also, in the data set on Tainung 67 seedlings (ABA concentration of 0.1 μM, 14 days), the “root length and lateral root density” value is on record as “significantly increased”. Besides, the root density entry in the data set on Tainung 67 seedlings (ABA concentrations higher than 0.5 M, 14 days) is “decreased”. The lateral root morphology result in the data set with Tainung 67 seedlings (ABA concentrations, 14 days) was “shorter and thicker”.
`O=C(O)c1ccccc1C(=O)Nc1cccc2ccccc12` [NPA, N-(1-naphthyl) phtalamic acid]: in the data set on Tainung 67 seedlings (setting [2]), the “growth of crown roots and lateral roots” value is given as “also inhibited”; the “growth of seminal roots” value is on record as “continued to grow”. Further, the “growth of all types of roots” value with Tainung 67 seedlings (1 μM NPA only, 11 days, WT and transgenic lines) is listed as “inhibited”.

B1: 3xABRC321: synthetic ABA-inducible promoter, three tandem copies of ABRC321 driving GUS (nucleic acid)
DNA: GGTACCGCAACGCGTGTCCTCCCTACGTGGCGGCTCGAGATTGCCACCGGGGTACCGCAACGCGTGTCCTCCCTACGTGGCGGCTCGAGATTGCCACCGGGGTACCGCAACGCGTGTCCTCCCTACGTGGCGGCTCGAGATTGCCACCGGTCTAGA
modifications: Synthetic prompter 3XABRC321
notes: synthetic ABA-inducible promoter, three tandem copies of ABRC321 driving GUS
For the molecule B1, in data set [1], the “ABA induction of GUS activity in leaves and roots” value is listed as “most highly induced by ABA among all constructs”. In addition, the “induction of GUS activity by ABA” value in the data set on rice half seeds was determined as 33 fold.

B2: 2xABRC321: synthetic ABA-inducible promoter, two tandem copies of ABRC321 driving GUS (nucleic acid)
DNA: GGTACCGCAACGCGTGTCCTCCCTACGTGGCGGCTCGAGATTGCCACCGGGGTACCGCAACGCGTGTCCTCCCTACGTGGCGGCTCGAGATTGCCACCGGTCTAGA
modifications: synthetic promoter element in GUS reporter construct, further chemistry not given here
With B2, in the data set on rice half seeds, the “induction of GUS activity by ABA” value stood at 20 fold.
